Tested on: IgE and inflammatory markers of AD mice
Assay: MC903-induced atopic dermatitis, oral administration: serum IgE and ear mRNA of inflammatory markers
Format: in vivo, mouse
Design: scale not given here
Experimental: Except for the Normal group, all other groups underwent AD modeling: 20 μL of MC903 solution (also known as calcipotriol, purchased from Shanghai Yuanye Biotechnology Co., Ltd., used for inducing atopic models) was applied to each mouse's ears once daily for 14 consecutive days to induce the atopic dermatitis model. […] Measure ear thickness changes every 2 days using an electronic caliper before modeling and after treatment initiation.

With `CN(C)C[C@@H]1C(=O)O[C@H]2[C@H]1CC[C@@]1(C)C[C@]13CC[C@@](C)(O)[C@H]23` [Compound 20] the “I14 mRNA expression, ear” value (0.1 mg/kg oral) was 2.77 ± 0.16, the “I113 mRNA expression, ear” value (0.1 mg/kg oral) was 2.04 ± 0.20 and the “I131 mRNA expression, ear” value (0.1 mg/kg oral) was 2.64 ± 0.22. For the same molecule, the “TSLP mRNA expression, ear” value (0.1 mg/kg oral) was 3.38 ± 0.51, the “Tnf mRNA expression, ear” value (0.1 mg/kg oral) was 4.04 ± 0.50 and the “I14 mRNA expression, ear” value (1 mg/kg oral) was 2.65 ± 0.22. For the same molecule, the “I113 mRNA expression, ear” value (1 mg/kg oral) was 1.82 ± 0.21, the “TSLP mRNA expression, ear” value (1 mg/kg oral) was 2.36 ± 0.32 and the “Tnf mRNA expression, ear” value (1 mg/kg oral) was 2.63 ± 0.55. The “I14 mRNA expression, ear” value (10 mg/kg oral) was 2.09 ± 0.26, the “I113 mRNA expression, ear” value (10 mg/kg oral) was 1.66 ± 0.30 and the “I131 mRNA expression, ear” value (10 mg/kg oral) was 1.68 ± 0.13. The “TSLP mRNA expression, ear” value (10 mg/kg oral) was 1.33 ± 0.13 and the “Tnf mRNA expression, ear” value (10 mg/kg oral) was 1.22 ± 0.18.

From patent publication US20260315434A1, “USE OF GUAIACOL SESQUITERPENE LACTONE DERIVATIVES” (NANJING UNIVERSITY OF CHINESE MEDICINE, priority 2023, published 2026)
